Experimental data as given in ChEMBL document CHEMBL5325462, “Regioselective synthesis and in vitro cytotoxicity evaluation of 3-thiooxindole derivatives: Tubulin polymerization inhibition and apoptosis inducing studies” (Bioorg Med Chem, 2023).
Active and inactive are the calls of the source. The rule behind the calls is not given here.

How the values were obtained:
HCT-116 [1] = test: Cell cycle arrest in human HCT-116 cells assessed as accumulation of cells in sub-G1 phase at 13.28 uM measured after 48 hrs by PI staining based flow cytometry method (reference value: 4.6%); type: functional
HCT-116 [2] = test: Induction of nuclear morphological changes in human HCT-116 cells assessed as change in nuclear condensation measured after 48 hrs by DAPI-staining based fluorescence microscopic analysis; type: functional, cell-based
Cell membrane [3] = test: Induction of mitochondrial membrane potential loss in human HCT-116 cells assessed as depolarized cells at 6.64 uM incubated for 72 hrs by JC-1 staining based flow cytometry analysis (reference value: 0.4 %); type: subcellular
Cell membrane [4] = test: Induction of mitochondrial membrane potential loss in human HCT-116 cells assessed as depolarized cells at 13.28 uM incubated for 72 hrs by JC-1 staining based flow cytometry analysis (reference value: 0.4 %); type: subcellular
HCT-116 [5] = test: Induction of apoptosis in human HCT-116 cells assessed as viable cells at 13.28 uM incubated for 24 hrs by Annexin V-FITC/PI staining based flow cytometry analysis (Rvb= 99.7%); type: functional; settings: read-out: Activity
HCT-116 [6] = test: Cell cycle arrest in human HCT-116 cells assessed as accumulation of cells in G2/M phase at 3.32 uM measured after 48 hrs by PI staining based flow cytometry method (reference value: 6.7%); type: functional
SK-MEL-28 = test: Cytotoxicity against human SK-MEL-28 cells assessed as inhibition of cell growth measured after 72 hrs by MTT assay; type: functional, cell-based; settings: SK-MEL-28, 72 h
HCT-116 [7] = test: Cell cycle arrest in human HCT-116 cells assessed as accumulation of cells in sub-G1 phase at 6.64 uM measured after 48 hrs by PI staining based flow cytometry method (reference value: 4.6%); type: functional
HCT-116 [8] = test: Induction of nuclear morphological changes in human HCT-116 cells assessed as horseshoe shaped nuclei formation measured after 48 hrs by DAPI-staining based fluorescence microscopic analysis; type: functional, cell-based
HCT-116 [9] = test: Cytotoxicity against human HCT-116 cells assessed as inhibition of cell growth measured after 72 hrs by MTT assay; type: functional, cell-based; settings: HCT-116, 72 h
HCT-116 [10] = test: Cell cycle arrest in human HCT-116 cells assessed as accumulation of cells in G2/M phase at 13.28 uM measured after 48 hrs by PI staining based flow cytometry method (reference value: 6.7%); type: functional
HCT-116 [11] = test: Induction of ROS production in human HCT-116 cells at 3.32 uM incubated for 72 hrs by DCFDA staining based fluorescence microscopic analysis; type: functional, cell-based
MCF7 = test: Cytotoxicity against human MCF7 cells assessed as inhibition of cell growth measured after 72 hrs by MTT assay; type: functional, cell-based; settings: MCF7, 72 h
HCT-116 [12] = test: Inhibition of colony formation in human HCT-116 cells measured after 14 days; type: functional, cell-based; settings: dose 3.32-13.28 µM, time 14.0 day

CC(C)(C)S(=O)(=O)NCC1(Sc2nc3ccccc3[nH]2)C(=O)N(Cc2ccc(Br)cc2)c2ccccc21 (centres undefined)
Activity (HCT-116 [1]): 32.3% | Activity (HCT-116 [2]): Dose-Dependent Effect | Activity (Cell membrane [3]): 5.9% | Activity (Cell membrane [4]): 13.3% | viability at 13.28 µM (HCT-116 [5]): 4.2% | Activity (HCT-116 [6]): 11.8% | IC50 (SK-MEL-28): 15.3 µM | Activity (HCT-116 [7]): 27.4% | Activity (HCT-116 [8]): Dose-Dependent Effect | IC50 (HCT-116 [9]): 6.64 µM | Activity (HCT-116 [10]): 18.4% | Activity (HCT-116 [11]): Active | IC50 (MCF7): 12.8 µM | inhibition (HCT-116 [12]): Dose-Dependent Effect
